ChEMBL document CHEMBL1201862, “PubChem BioAssay data set” (2004)
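Interpolation was linear, between the two tested concentrations surrounding the appropriate level; five concentrations were tested over 48 hours in 96-well plates. GI50 = concentration required for 50% inhibition of growth.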 Active and inactive are the calls of the source. Rule as the data show it: active = GI50 up to about 1.1 µM and inactive = higher.

How the values were obtained:
Assay in all cases: NCI tumour cell line growth inhibition, 48 h
[1] = system: SK-MEL-5
[2] = system: DU-145
[3] = system: SF-268
[4] = system: RPMI-8226
[5] = system: HCC 2998
[6] = system: SN12C
[7] = system: M14
[8] = system: HOP-92
[9] = system: CAKI-1
[10] = system: SF-295
[11] = system: SW-620
[12] = system: SR
[13] = system: UACC-62
[14] = system: HCT-116
[15] = system: U-251
[16] = system: PC-3
[17] = system: SNB-75
[18] = system: SF-539
[19] = system: K562
[20] = system: SNB-19

Measured: GI50

CCOC(=O)CC[C@H](NC(=O)[C@H](N)Cc1ccc(N(CCCl)CCCl)cc1)C(=O)OCC
inactive: [1] 10.4 µM | [2] 13.2 µM | [3] 1.43 µM | [4] 19.6 µM | [5] 18.3 µM | [6] 14.2 µM | [7] 8.65 µM | [8] 3.64 µM | [9] 4.65 µM | [10] 29.2 µM | [11] 18 µM | [12] 1.91 µM | [13] 2.68 µM | [14] 22.2 µM | [15] 16.8 µM | [16] 20.8 µM | [17] 12 µM | [18] 9.66 µM | [19] 22.6 µM | [20] 27.6 µM

COc1ccc(/N=N/C(=O)NC(CC(C)C)C(N)=O)cc1 (stereo not drawn)
inactive: [1] > 62.4 µM | [2] 49.1 µM | [3] > 100 µM | [4] 14.8 µM | [5] > 31 µM | [6] > 31.6 µM | [7] > 28.9 µM | [8] > 31.6 µM | [9] > 31.6 µM | [10] 5.58 µM | [11] > 29.2 µM | [12] 5.64 µM | [13] 6.92 µM | [14] > 31.6 µM | [15] > 100 µM | [16] > 100 µM | [17] > 100 µM | [18] 22.9 µM | [19] 1.43 µM | [20] > 100 µM

CC1(C)C(=O)C(C)(C)C12SSC1(S2)C(C)(C)C(=O)C1(C)C
inactive: [1] > 100 µM | [2] > 100 µM | [3] > 100 µM | [4] 65.9 µM | [5] > 100 µM | [6] > 100 µM | [7] > 100 µM | [8] > 100 µM | [9] > 100 µM | [10] > 100 µM | [11] > 100 µM | [12] > 100 µM | [13] > 100 µM | [14] > 100 µM | [15] > 100 µM | [16] 84.5 µM | [17] > 100 µM | [18] > 100 µM | [19] > 100 µM | [20] > 100 µM

COC(=O)C1=CO[C@@H](OC2OC(CO)C(O)C(O)C2O)[C@@H]2[C@H](C)[C@@H](O)[C@@H](O)[C@]12O (stereo partly drawn)
inactive: [1] > 100 µM | [2] > 100 µM | [3] > 100 µM | [4] > 100 µM | [5] > 100 µM | [6] > 100 µM | [7] > 100 µM | [8] > 100 µM | [9] 13.4 µM | [10] > 100 µM | [11] > 100 µM | [12] > 100 µM | [13] > 100 µM | [14] > 100 µM | [15] > 100 µM | [16] > 100 µM | [17] 33 µM | [18] > 100 µM | [20] > 100 µM

Cc1ccc(OCC2OC(n3cnc4c(Br)nc(Br)nc43)CC2Oc2ccc(C)cc2)cc1 (stereo not drawn)
inactive: [1] 6.31 µM | [2] 2.38 µM | [3] 12.9 µM | [4] 9.29 µM | [5] 2.6 µM | [6] 3.37 µM | [7] 2.59 µM | [8] 2.41 µM | [9] 1.97 µM | [10] 8.49 µM | [11] 2.56 µM | [12] 1.96 µM | [13] 7.35 µM | [14] 1.89 µM | [15] 2.24 µM | [16] 2.94 µM | [17] 3.09 µM | [18] 2.19 µM | [19] 2.57 µM | [20] 7.31 µM

COc1cccc(/C=N/C(/N=C/c2cccc(OC)c2O)c2cccc(OC)c2O)c1O
inactive: [1] 15 µM | [2] 18.4 µM | [3] 10.6 µM | [4] 22 µM | [5] 18.8 µM | [6] 19.2 µM | [7] 17.1 µM | [8] 31.7 µM | [9] 19.6 µM | [10] 23.6 µM | [11] 27.5 µM | [12] 6.38 µM | [13] 24.2 µM | [14] 14.6 µM | [15] 15.6 µM | [16] 26 µM | [17] 13.9 µM | [18] 20.1 µM | [19] 24.7 µM | [20] 22.6 µM

Oc1cc(O)c2c(c1)O[C@H](c1cc(O)c(O)c(O)c1)[C@H](O)C2 [EPIGALLOCATECHIN]
inactive: [1] 16.9 µM | [2] 63.7 µM | [3] 25.4 µM | [4] 13.8 µM | [5] > 10 µM | [6] 20.5 µM | [7] 23.6 µM | [8] 20.7 µM | [9] 33.1 µM | [10] 30.5 µM | [11] 17.5 µM | [12] 14.4 µM | [14] 19.2 µM | [15] 16.4 µM | [16] 16.5 µM | [17] 31.6 µM | [18] 20.3 µM | [19] 20.4 µM | [20] > 100 µM
